In ChEMBL document CHEMBL4428076 (J Med Chem, 2016):
The source made the active and inactive calls. The rule behind the calls is not given here.

What was measured:
[1] = target: T1, Alpha-2A adrenergic receptor (Homo sapiens) (UniProt P08913); assay: Displacement of [3H]rauwolscine from recombinant human adrenergic alpha2A receptor expressed in MDCK cell membrane after 90 mins by microbeta scintillation counting method
T1 sequence (whole entry): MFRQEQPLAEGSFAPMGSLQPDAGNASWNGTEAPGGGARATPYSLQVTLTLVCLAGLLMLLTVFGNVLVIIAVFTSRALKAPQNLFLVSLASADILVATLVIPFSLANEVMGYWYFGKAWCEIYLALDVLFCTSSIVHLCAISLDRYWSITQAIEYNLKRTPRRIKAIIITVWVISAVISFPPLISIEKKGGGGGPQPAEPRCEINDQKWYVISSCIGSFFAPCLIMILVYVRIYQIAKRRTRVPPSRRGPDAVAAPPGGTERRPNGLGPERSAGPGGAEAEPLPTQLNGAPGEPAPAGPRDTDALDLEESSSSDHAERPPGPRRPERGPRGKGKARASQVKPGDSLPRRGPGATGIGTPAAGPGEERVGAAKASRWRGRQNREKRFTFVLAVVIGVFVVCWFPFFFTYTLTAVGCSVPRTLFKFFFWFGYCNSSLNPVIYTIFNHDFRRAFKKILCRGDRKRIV

Mus musculus [2] = assay: Antinociceptive activity in MOR-1 6TM/E11 splice variant knock out sc dosed C57BL/6 mouse assessed as increase in reaction time by radiant heat tail flick assay; assay type: functional; conditions: C57BL/6, sc
[3] = target: T2, Kappa-type opioid receptor (Mus musculus, UniProt P33534); assay: Antagonist activity at mouse kappa opioid receptor-1 expressed in CHO cell membranes assessed as inhibition of U50,488H-induced [35S]GTPgammaS binding incubated for 60 mins by scintillation spectroscopic analysis; assay type: functional
Mus musculus [4] = assay: Antinociceptive activity in sc dosed C57BL/6 mouse assessed as increase in reaction time by radiant heat tail flick assay; assay type: functional; conditions: C57BL/6, sc
Mus musculus [5] = assay: Antinociceptive activity in CD-1 mouse assessed as increase in reaction time at 1.5 mg/kg, sc administered on day 6 after DOR1-exon3 antisense oligodeoxynucleotide injection on day 1, 3 and 5 by radiant heat tail flick assay; assay type: functional, organism-based
[6] = target: T2, Kappa-type opioid receptor; assay: Displacement of [125I]-IBNtxA from mouse kappa opioid receptor-1 expressed in CHO cell membranes incubated for 90 mins
Mus musculus [7] = assay: Antinociceptive activity in CD-1 mouse assessed as increase in reaction time at 1.5 mg/kg, sc administered on day 6 after KOR1-exon2 antisense oligodeoxynucleotide injection on day 1, 3 and 5 by radiant heat tail flick assay; assay type: functional, organism-based
Mus musculus [8] = assay: Antinociceptive activity in CD-1 mouse assessed as increase in reaction time at 1.5 mg/kg, sc measured 15 mins post dose in presence of delta opioid receptor antagonist NTI by radiant heat tail flick assay; assay type: functional, organism-based
Mus musculus [9] = assay: Antinociceptive activity in C57BL/6 mouse assessed as increase in reaction time at 0.1 to 10 mg/kg, sc measured 15 mins post dose by radiant heat tail flick assay; assay type: functional, organism-based
[10] = Toxicity in CD-1 mouse assessed as inhibition of gastrointestinal transit by measuring distance traveled by charcoal at 4 mg/kg, sc followed by charcoal meal administration measured after 30 mins; assay type: organism-based; conditions: in vivo, 0.5 h
[11] = Toxicity in C57BL/6 mouse assessed as conditioned place aversion at 1.3 to 3.2 mg/kg/day, ip measured for 30 mins post dose; assay type: organism-based; conditions: in vivo, 0.5 h
Mus musculus [12] = assay: Antinociceptive activity in MOR-1 7TM/E1 splice variant knock out sc dosed C57BL/6 mouse assessed as increase in reaction time by radiant heat tail flick assay; assay type: functional; conditions: C57BL/6, sc
Mus musculus [13] = assay: Antinociceptive activity in CD-1 mouse assessed as increase in reaction time at 1.5 mg/kg, sc measured 15 mins post dose in presence of kappa opioid receptor antagonist norBNI by radiant heat tail flick assay; assay type: functional, organism-based
[14] = Toxicity in CD-1 mouse assessed as physical dependence by measuring number of jumps at 1.5 mg/kg, sc bid for 29 days followed by opioid antagonist naloxone injection on day 29 measured for 15 mins post last dose; assay type: organism-based; conditions: in vivo, 0.25 h
[15] = Toxicity in C57BL/6 mouse assessed as decrease in respiratory rate at 1.2 mg/kg, sc measured at 15 to 35 mins post dose; assay type: organism-based; conditions: in vivo
Mus musculus [16] = assay: Antinociceptive activity in sc dosed CD-1 mouse assessed as increase in AUC of reaction time administered twice daily at dosing intervals of 12 hrs for 29 days by radiant heat tail flick assay relative to morphine; assay type: functional
[17] = Toxicity in CD-1 mouse assessed as physical dependence by measuring number of jumps at 1.5 mg/kg, sc bid for 22 days followed by opioid antagonist naloxone injection on day 22 measured for 15 mins post last dose; assay type: organism-based; conditions: in vivo, 0.25 h

T2 sequence (P33534 whole entry): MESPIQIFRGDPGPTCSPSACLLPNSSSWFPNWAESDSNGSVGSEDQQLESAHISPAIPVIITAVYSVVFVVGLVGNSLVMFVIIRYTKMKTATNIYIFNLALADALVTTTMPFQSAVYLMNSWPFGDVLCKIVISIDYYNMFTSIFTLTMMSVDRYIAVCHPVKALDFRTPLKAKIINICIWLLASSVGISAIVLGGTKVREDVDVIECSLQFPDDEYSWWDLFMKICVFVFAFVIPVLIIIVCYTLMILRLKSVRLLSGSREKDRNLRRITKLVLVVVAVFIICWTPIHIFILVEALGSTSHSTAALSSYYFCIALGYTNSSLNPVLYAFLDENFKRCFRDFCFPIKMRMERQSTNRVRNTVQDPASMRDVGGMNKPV

## CC[C@@H]1CN2CC[C@]3(Nc4cccc(OC)c4C3=O)[C@@H]2C[C@@H]1/C(=C\OC)C(=O)OC
[1]
  inhibition: Active
Mus musculus [2]
  ED50: 1.4 mg/kg
[3]
  IC50: 31 nM
Mus musculus [4]
  ED50: 0.83 mg/kg
Mus musculus [5]
  Activity: Active
[6]
  Ki: 24 nM
Mus musculus [7]
  Activity: Active
Mus musculus [8]
  Activity: Active
Mus musculus [9]
  Activity: Active
[10]
  Activity: Non-Toxic
[11]
  Activity: Non-Toxic
Mus musculus [12]
  ED50: > 30 mg/kg
Mus musculus [13]
  Activity: Active
[14]
  Activity: 14
[15]
  Activity: Non-Toxic
Mus musculus [16]
  fold change (FC): 6
[17]
  Activity: 13
